Measured values: patent US9648880B2, “Antifungal agents and uses thereof” (University of Massachusetts, priority 2012, dated 2017)
“And” between values parts separate entries of the source, which are not always exact repeats. Equal entries are not always repeated.

How the values were obtained:
Gcn5 = molecular target: T1, Gcn5 (Saccharomyces cerevisiae, UniProt Q03330); assay: HAT-ThioGlo1 time course assay, Gcn5; type: biochemical, S. cerevisiae; details: up to 100 μM
T1 construct: 6xHis (N); made in house; host or cells: BL21 E. coli
T1 sequence (Q03330 whole entry): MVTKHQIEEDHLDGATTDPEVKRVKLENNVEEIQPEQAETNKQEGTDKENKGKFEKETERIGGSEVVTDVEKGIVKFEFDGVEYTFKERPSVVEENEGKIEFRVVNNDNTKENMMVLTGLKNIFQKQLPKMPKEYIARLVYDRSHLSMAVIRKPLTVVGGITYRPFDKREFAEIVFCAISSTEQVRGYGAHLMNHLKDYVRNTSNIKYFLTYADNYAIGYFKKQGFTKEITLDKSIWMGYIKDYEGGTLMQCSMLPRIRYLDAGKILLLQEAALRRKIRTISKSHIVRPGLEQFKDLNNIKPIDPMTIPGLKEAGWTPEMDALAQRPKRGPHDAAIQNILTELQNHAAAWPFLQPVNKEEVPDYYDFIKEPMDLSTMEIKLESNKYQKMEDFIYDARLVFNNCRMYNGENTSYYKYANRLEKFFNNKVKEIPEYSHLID

Rtt109-Vps75 = molecular target: T2, Rtt109-Vps75 (Saccharomyces cerevisiae, UniProt Q07794); assay: HAT-ThioGlo1 time course assay, Rtt109-Vps75; type: biochemical, S. cerevisiae; details: IC50, 50 nM Rtt109-Vps75, 15 μM H3n21 peptide, 30 μM Ac-CoA
T2 construct: 6xHis (on one of the two proteins of the complex); made in house; host or cells: bacteria
T2 sequence (Q07794 1-436): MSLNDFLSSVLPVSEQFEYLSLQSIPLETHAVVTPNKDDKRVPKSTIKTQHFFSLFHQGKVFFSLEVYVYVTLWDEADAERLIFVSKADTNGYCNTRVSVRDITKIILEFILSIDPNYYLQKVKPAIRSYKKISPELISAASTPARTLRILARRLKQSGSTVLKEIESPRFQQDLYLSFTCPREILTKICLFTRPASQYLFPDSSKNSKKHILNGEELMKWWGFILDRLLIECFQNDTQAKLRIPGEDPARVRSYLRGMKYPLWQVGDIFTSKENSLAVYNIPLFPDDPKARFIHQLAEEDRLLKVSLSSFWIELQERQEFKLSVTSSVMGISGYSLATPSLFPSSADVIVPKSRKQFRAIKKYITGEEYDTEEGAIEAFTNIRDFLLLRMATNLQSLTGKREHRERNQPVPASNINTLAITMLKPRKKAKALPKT
T2 sequence (P53853 1-264 partner): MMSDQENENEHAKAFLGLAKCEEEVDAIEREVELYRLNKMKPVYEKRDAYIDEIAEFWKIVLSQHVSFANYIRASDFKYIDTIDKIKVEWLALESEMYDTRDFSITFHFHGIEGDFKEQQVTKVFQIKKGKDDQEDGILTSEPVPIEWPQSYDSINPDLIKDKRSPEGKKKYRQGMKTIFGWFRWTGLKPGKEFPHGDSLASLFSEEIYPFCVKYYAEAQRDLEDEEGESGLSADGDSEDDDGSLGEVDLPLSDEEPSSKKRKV

p300 = molecular target: T3, p300 (Homo sapiens, UniProt Q09472); assay: HAT-ThioGlo1 time course assay, p300; type: biochemical; details: up to 100 μM
T3 construct: p300 catalytic domain (p300 amino acids 1195-1810; Fan, 2010); 6xHis (N); FLAG (N); made in house; host or cells: BL21 E. coli
T3 sequence (Q09472 1195-1810): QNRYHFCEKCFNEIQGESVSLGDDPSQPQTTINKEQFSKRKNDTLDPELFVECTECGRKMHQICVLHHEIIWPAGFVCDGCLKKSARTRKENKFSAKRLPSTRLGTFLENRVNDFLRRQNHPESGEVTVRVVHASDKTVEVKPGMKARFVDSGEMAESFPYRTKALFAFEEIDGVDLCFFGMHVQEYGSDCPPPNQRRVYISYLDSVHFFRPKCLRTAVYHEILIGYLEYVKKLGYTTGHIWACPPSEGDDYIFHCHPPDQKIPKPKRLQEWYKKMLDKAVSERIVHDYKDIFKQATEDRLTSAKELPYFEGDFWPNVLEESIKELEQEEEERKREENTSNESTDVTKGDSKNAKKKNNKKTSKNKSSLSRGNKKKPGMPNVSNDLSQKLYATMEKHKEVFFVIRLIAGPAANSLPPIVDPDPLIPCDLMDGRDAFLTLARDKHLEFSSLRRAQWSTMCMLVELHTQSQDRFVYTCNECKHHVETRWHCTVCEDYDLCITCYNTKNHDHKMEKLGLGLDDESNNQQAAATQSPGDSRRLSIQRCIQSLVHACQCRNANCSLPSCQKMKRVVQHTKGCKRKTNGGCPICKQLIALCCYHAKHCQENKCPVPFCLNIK

Which “enzyme reaction rate, % activity” value (Gcn5) does the source give for CCCC1(c2ccccc2)NC(=O)N(CC(=O)N(C)Cc2c(F)cccc2Cl)C1=O (stereo not drawn) [KB7, N-[(2-chloro-6-fluorophenyl)methyl]-2-(2,5-dioxo-4-phenyl-4-propylimidazolidin-1-yl)-N-methylacetamide] here?
The value was at least 80%.

What about the IC50 (Rtt109-Vps75) of the same molecule?
Its IC50 is 55.2 nM and ~56 nM.

What about the “enzyme reaction rate, % activity” value (p300) of the same molecule?
The value was at least 80%.
